Reference: paper PMC10779222, “Copper(II) Complexes with 1-(Isoquinolin-3-yl)heteroalkyl-2-ones: Synthesis, Structure and Evaluation of Anticancer, Antimicrobial and Antioxidant Potential” (International Journal of Molecular Sciences, 2023)

Tests used:
T98G (glioblastoma) = assay: MTT cytotoxicity assay on T98G cells; type: cell-based
Method: (§1) Cytotoxic activity of the investigated compounds was evaluated against T98G (glioblastoma), HepG2 (hepatoma), LS-180 (colon cancer) and A375 (melanoma) cell lines. Human normal skin fibroblasts, CCD-1059Sk (CRL-2072), were used as reference (non-cancerous) cells. All of the cell lines were obtained from American Type Culture Collection (ATCC; Manassas, VA, USA). A375, T98G and CCD-1059Sk cells were cultured in Dulbecco’s Modified Eagle’s Medium (DMEM) (Sigma Aldrich, St. Louis, MO, USA) supplemented with 10% FBS, penicillin (100 U/mL) and streptomycin (100 μg/mL). LS-180 and HepG2 cells were cultured in Eagle’s Minimum Essential Medium supplemented with 10% FBS, penicillin (100 U/mL) and streptomycin (100 μg/mL). All of the cells were maintained at 37 °C in a humidified atmosphere of 5% CO2. The compounds were dissolved in DMSO in order to obtain stock solutions. At the day of the experiment, the suspension of cells (1 × 10^5 cells/mL) was distributed onto 96-well plates at a volume of 100 μL/well. After attachment, the cells were treated with the increased concentrations of the tested compounds in medium containing 2% FBS and incubated for 24 h. Then, the medium was removed from wells, and cells were rinsed with PBS. Afterwards, 15 μL of MTT working solution (5 mg/mL in PBS) was added to each well, and the plates were incubated for 3 h. Subsequently, 100 μL of 10% SDS solution was added to each well in order to dissolve the precipitated formazan crystals. After overnight incubation at 37 °C, the absorbance of the obtained solution was measured at λ = 570 nm using a microplate reader (Epoch, BioTek Instruments, Inc., Winooski, VT, USA). At least two independent experiments were performed in triplicate. […] IC50 values of the investigated derivatives and positive control (etoposide) were calculated using the IC50 online calculator [101].

[1] = test system: CCD-1059Sk (human normal skin fibroblasts); assay: MTT cytotoxicity assay on non-cancerous fibroblasts; type: cell-based; details: 24 h incubation, non-cancerous cells
Method: as §1

[2] = test system: A375, HepG2, LS-180, T98G and CCD-1059Sk cell lines; assay: MTT cytotoxicity assay, summary statements over several cell lines; type: cell-based; details: range over HepG2 and T98G
Method: as §1

T98G cells [3] = assay: Cell cycle analysis (image cytometry, DAPI) in T98G; type: cell-based, human; details: 24 h, C2 at IC50 concentration
Method: Cell cycle analysis of T98G and HepG2 cells pretreated with copper(II) complex C2 (CX) (at IC50 concentration) was performed on NucleoCounter NC-3000 Image Cytometer (ChemoMetec, Lillerod, Denmark). The investigated cells were seeded on 6-well culture plates (Corning Inc., New York, NY, USA) at the density of 1 × 10^5 cells/mL and cultured in the respective medium at 37 °C in a humidified atmosphere of 5% CO2. When the cells reached approximately 80% confluence, they were treated with C2 (CX), at a concentration of IC50, for 24 h. Subsequently, the cells were detached with trypsine, suspended in 250 μL of lysis buffer (Solution 10) supplemented with DAPI (10 μg/mL) and incubated for 5 min at 37 °C. Following this, stabilization buffer (Solution 11) was added, and the obtained cell suspension was applied on NC-slide and analyzed using NucleoCounter NC-3000 Image Cytometer equipped with NucleoView NC-3000^TM software (ChemoMetec A/S, Lillerod, Denmark). Experiments were repeated three times, and the measurements in each experiment were run in duplicate.

T98G cells [4] = details: C2 at 0.25 µg/mL (non-cytotoxic), drugs at IC50 or 100 µg/mL, 24 h, MTT
Method: Next, T98G or HepG2 cells were incubated for 24 h with medium containing a mixture of the respective drugs mixed with the highest non-toxic concentration of C2 (CX). The viability of cells was evaluated using MTT assay, as described above. ANOVA analysis (with Tukey’s post hoc test) was performed in order to examine the possible interactions between compound C2 (CX) and ETO, CIS, 5-FU and TMZ.

[5] = DPPH radical scavenging assay; details: ±SD; 30 min, room temperature
Method: The DPPH radical scavenging assay of samples was performed with ascorbic acid as a positive control. Briefly, 100 μL of different concentrations of the complexes, dissolved in DMSO, was mixed with 100 μL of 0.06 mM DPPH methanolic solution and incubated at room temperature in the dark for 30 min. The change in absorbance at λ = 517 nm was analyzed with the use of a 96-well microplate reader (Epoch, BioTek System, Winooski, VT, USA). The control was composed of DPPH and DMSO. DPPH inhibition was calculated according to the following equation:DPPH Inhibition (%) = [(Acontrol − Asample)/Acontrol] × 100% The radical scavenging activity of the samples was shown as the IC50 value (the concentration of the analyzed samples that caused a decrease in the non-reduced form of the DPPH radical by 50%).

[6] = ABTS radical scavenging assay; details: ±SD; 10 min, 30 °C
Method: The ABTS radical scavenging assay of samples (ligands or complexes) was performed with ascorbic acid as a positive control. Briefly, 30 μL of different concentrations of the samples, dissolved in DMSO, was mixed with 170 μL of ABTS solution (2 mM ABTS diammonium salt, 3.5 mM potassium persulfate) and completed with water to a final volume of 300 μL. ABTS solution with DMSO was used as a control. […] ABTS inhibition was calculated according to the following equation:ABTS Inhibition (%) = [(Acontrol − Asample)/Acontrol] × 100% The radical scavenging activity of the samples was shown as the IC50 value (the concentration of the analyzed samples that caused a decrease in the non-reduced form of the ABTS radical by 50%).

O=C1NCCN1c1cc2ccccc2cn1.O=C1NCCN1c1cc2ccccc2cn1.[Cl][Cu][Cl] [C2, Dichloro{bis[1-(Isoquinolin-3-yl)imidazolidin-2-one]}copper(II)]
highest concentration that did not affect the viability of T98G cells (T98G (glioblastoma); MTT assay): 0.25 µg/mL
IC50 ± SD, T98G (T98G (glioblastoma); MTT, 24 h incubation): 6.97 ± 0.52 µg/mL
selectivity index (SI), T98G (T98G (glioblastoma); T98G compared with CCD-1059-Sk): 3.14
IC50 ± SD, CCD-1059-Sk [1]: 21.86 ± 1.03 µg/mL
IC50, HepG2 and T98G [2]: 5.04 to 6.97 µg/mL
effect on cell cycle progression, T98G (T98G cells [3]): cell cycle arrest in the G2/M phase
effect on cytotoxicity of anticancer drugs, T98G (T98G cells [4]): statistically significantly improved the cytotoxic effects of ETO, 5-FU and TMZ
IC50 DPPH [5]: 401.52 ± 2.48 µg/mL
IC50 ABTS [6]: 107.14 ± 1.42 µg/mL
